# Source: US11793824B2, “Administration of nicotinamide mononucleotide in the treatment of disease” (Washington University, priority 2013, dated 2023)
# Experiment: Age-associated increases in blood lipid levels
# Format: in vivo, mouse
# Method: A 12 month-long NMN administration study using wild-type mice under a regular chow-fed condition was conducted. NMN was administered through drinking water, and two doses of NMN, 100 and 300 mg/kg body weight/day, were tested. […] To assess beneficial and possible adverse effects of NMN, a variety of physiological parameters were periodically monitored, including body weight, body temperature, food and water intake, fed and fasted blood glucose levels, fed and fasted plasma lipid panels, and glucose and insulin tolerance, in NMN-administered and control mice. Blood chemistry, blood cell counts, urine strip test, and other physiological tests including physical activity test were also checked.
# Blood levels of cholesterol, triglycerides, and free fatty acids are shown over 12 months in the control and the 100 and 300 mg/kg NMN-administered cohorts in FIG. 7. The results were analyzed with two-way RANOVA and one-way RANOVA. All values are presented as mean±SEM (n=25 for each group).
# Without being limited by theory, since NMN has an effect of suppressing age-associated body weight increase, it was hypothesized that NMN's effect on blood lipid levels could be due to the reduction in body weight. To address this possibility, lipid levels were compared among individual mice whose average body weights were matched through control and experimental cohorts. Body weight-matched blood levels of cholesterol, triglycerides, and free fatty acids are shown over 12 months in the control and the 100 and 300 mg/kg NMN-administered cohorts in FIG. 8. The results were analyzed with two-way RANOVA and one-way RANOVA. All values are presented as mean±SEM (n=10-15 for each group). […] All values are presented as mean±SEM (n=10-15 for each group). These findings indicate that NMN has the effect of suppressing the age-associated increase in blood FFA levels, independent of the reduction in body weight. Without being limited by theory, the effect of NMN on blood cholesterol levels may be secondary to the effect of suppressing age-associated body weight increase.
# [1] = 100 and 300 mg/kg groups vs control
compound,measurement,setting,value
"NC(=O)c1ccc[n+]([C@@H]2O[C@H](COP(=O)([O-])O)[C@@H](O)[C@H]2O)c1 [NMN, nicotinamide mononucleotide]",increase of FFAs over time after body weight match,100 mg/kg group,showed significant increases over time
same,increase of blood FFAs over time,"100 mg/kg group, first 6 months",statistically significant increases
same,increase of FFAs over time after body weight match,300 mg/kg group,did not show any statistically significant increases over time
same,increase of blood FFAs over time,300 mg/kg group,did not show any statistically significant increase over time
same,age-associated increases in blood levels of FFAs,"300 mg/kg, particularly at the 6-month time point",suppressed age-associated increases in blood levels of FFAs
same,FFA levels after matching body weight,[1],still lower
same,blood cholesterol levels after matching body weight,[1],very similar through control and experimental groups
same,age-associated increases in blood cholesterol and free fatty acids,"100 and 300 mg/kg groups, 12 months",tended to be suppressed
